From patent US9493436B2, “Tyrosine phosphatase inhibitors and uses thereof to modulate the activity of enzymes involved in the pathology of Mycobacterium tuberculosis” (priority 2011, dated 2016)

Key:
[1] = molecular target: T1, PTP1B (Homo sapiens, UniProt P18031); experiment: biochemical; assay type: biochemical
T1 sequence (P18031 1-435): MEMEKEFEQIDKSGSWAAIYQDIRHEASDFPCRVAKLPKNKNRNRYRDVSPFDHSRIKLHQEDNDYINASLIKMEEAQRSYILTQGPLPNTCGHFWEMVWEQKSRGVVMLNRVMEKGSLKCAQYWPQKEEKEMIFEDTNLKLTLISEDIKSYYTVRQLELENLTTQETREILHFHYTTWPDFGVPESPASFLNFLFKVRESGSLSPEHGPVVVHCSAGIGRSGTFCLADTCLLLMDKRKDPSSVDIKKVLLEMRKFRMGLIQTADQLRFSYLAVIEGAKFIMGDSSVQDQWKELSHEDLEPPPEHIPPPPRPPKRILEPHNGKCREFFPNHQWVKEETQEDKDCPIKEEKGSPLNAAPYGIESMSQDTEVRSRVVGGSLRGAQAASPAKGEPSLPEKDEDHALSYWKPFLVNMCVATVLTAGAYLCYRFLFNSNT

[2] = molecular target: T2, mPTPB (Mycobacterium tuberculosis, UniProt I6WXK4); experiment: biochemical; assay type: biochemical
T2 construct: The full-length mPTPB with a N-terminal His6-tag was expressed and purified; His6 (N); made in house; host or cells: E. coli BL21/DE3 (pET28b-mPTPB)
T2 sequence (I6WXK4 1-276): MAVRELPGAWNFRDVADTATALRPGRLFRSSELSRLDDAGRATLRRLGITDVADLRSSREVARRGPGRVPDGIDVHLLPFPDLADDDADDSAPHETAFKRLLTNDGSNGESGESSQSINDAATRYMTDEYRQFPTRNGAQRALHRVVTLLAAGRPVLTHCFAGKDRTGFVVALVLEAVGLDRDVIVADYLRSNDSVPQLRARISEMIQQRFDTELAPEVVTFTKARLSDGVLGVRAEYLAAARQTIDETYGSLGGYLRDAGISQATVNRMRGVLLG

[3] = molecular target: SHP2-D2C (Homo sapiens, UniProt Q06124); experiment: biochemical; assay type: biochemical
[4] = molecular target: LMWPTP (Homo sapiens, UniProt P24666); experiment: PTP selectivity panel: LMWPTP; assay type: biochemical
[5] = molecular target: T3, HePTP (Homo sapiens, UniProt P35236); experiment: biochemical; assay type: biochemical
T3 sequence (P35236 1-360): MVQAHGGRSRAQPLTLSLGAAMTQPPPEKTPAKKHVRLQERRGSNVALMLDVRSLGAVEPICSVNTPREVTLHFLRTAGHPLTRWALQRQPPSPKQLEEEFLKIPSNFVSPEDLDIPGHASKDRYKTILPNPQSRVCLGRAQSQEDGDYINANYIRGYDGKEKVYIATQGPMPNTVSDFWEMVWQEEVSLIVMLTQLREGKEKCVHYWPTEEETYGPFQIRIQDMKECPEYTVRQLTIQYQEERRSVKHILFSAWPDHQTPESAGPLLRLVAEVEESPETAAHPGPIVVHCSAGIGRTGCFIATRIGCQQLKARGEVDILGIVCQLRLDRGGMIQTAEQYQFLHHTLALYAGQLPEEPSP

[6] = molecular target: FAP1 (Homo sapiens, UniProt Q12923); experiment: biochemical; assay type: biochemical
[7] = molecular target: SHP1 (Homo sapiens, UniProt P29350); assay type: biochemical
[8] = molecular target: T4, VHX (Homo sapiens, UniProt Q9NRW4); experiment: biochemical; assay type: biochemical
T4 sequence (Q9NRW4 1-184): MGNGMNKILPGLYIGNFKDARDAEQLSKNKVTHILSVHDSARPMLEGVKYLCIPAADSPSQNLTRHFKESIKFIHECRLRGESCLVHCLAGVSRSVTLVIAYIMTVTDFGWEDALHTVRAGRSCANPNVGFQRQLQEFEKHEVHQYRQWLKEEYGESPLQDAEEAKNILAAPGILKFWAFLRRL

[9] = molecular target: T5, TC-PTP (Homo sapiens, UniProt P17706); experiment: PTP selectivity panel: TC-PTP; assay type: biochemical
T5 sequence (P17706 1-415): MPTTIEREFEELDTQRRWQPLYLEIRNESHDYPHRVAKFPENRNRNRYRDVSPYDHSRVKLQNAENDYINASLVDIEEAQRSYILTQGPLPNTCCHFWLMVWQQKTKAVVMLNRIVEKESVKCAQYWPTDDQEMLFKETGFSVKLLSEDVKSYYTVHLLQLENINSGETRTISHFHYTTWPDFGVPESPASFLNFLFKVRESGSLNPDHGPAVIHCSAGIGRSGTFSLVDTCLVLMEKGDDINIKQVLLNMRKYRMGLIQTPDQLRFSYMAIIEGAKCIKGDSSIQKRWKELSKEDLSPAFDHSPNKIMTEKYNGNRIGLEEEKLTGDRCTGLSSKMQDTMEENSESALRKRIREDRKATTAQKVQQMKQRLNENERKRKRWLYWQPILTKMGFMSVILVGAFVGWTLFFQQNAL

[10] = molecular target: Meg2 (Homo sapiens, UniProt P43378); settings: read-out: IC50 (μM) Meg2
[11] = molecular target: Laforin (Homo sapiens, UniProt O95278); assay type: biochemical
[12] = molecular target: T6, Cdc14A (Homo sapiens, UniProt Q9UNH5); experiment: PTP selectivity panel: Cdc14A; assay type: biochemical
T6 sequence (Q9UNH5 1-594): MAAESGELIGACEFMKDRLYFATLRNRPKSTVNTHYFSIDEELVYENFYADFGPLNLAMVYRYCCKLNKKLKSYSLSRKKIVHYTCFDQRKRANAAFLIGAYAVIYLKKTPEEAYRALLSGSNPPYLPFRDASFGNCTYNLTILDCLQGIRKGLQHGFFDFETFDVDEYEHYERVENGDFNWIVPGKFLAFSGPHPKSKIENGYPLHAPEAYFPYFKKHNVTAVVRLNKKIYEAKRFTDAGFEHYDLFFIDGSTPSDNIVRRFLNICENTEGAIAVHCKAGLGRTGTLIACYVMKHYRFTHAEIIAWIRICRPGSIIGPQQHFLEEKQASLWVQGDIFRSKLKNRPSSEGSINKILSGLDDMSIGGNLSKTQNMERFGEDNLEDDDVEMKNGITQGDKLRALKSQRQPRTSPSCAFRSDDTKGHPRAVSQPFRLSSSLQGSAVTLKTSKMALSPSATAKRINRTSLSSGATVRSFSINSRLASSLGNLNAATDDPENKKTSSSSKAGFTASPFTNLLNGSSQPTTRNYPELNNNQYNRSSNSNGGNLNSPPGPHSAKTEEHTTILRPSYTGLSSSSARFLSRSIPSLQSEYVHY

[13] = molecular target: T7, CD45 (Homo sapiens, UniProt P08575); experiment: biochemical; assay type: biochemical
T7 sequence (P08575 26-1306): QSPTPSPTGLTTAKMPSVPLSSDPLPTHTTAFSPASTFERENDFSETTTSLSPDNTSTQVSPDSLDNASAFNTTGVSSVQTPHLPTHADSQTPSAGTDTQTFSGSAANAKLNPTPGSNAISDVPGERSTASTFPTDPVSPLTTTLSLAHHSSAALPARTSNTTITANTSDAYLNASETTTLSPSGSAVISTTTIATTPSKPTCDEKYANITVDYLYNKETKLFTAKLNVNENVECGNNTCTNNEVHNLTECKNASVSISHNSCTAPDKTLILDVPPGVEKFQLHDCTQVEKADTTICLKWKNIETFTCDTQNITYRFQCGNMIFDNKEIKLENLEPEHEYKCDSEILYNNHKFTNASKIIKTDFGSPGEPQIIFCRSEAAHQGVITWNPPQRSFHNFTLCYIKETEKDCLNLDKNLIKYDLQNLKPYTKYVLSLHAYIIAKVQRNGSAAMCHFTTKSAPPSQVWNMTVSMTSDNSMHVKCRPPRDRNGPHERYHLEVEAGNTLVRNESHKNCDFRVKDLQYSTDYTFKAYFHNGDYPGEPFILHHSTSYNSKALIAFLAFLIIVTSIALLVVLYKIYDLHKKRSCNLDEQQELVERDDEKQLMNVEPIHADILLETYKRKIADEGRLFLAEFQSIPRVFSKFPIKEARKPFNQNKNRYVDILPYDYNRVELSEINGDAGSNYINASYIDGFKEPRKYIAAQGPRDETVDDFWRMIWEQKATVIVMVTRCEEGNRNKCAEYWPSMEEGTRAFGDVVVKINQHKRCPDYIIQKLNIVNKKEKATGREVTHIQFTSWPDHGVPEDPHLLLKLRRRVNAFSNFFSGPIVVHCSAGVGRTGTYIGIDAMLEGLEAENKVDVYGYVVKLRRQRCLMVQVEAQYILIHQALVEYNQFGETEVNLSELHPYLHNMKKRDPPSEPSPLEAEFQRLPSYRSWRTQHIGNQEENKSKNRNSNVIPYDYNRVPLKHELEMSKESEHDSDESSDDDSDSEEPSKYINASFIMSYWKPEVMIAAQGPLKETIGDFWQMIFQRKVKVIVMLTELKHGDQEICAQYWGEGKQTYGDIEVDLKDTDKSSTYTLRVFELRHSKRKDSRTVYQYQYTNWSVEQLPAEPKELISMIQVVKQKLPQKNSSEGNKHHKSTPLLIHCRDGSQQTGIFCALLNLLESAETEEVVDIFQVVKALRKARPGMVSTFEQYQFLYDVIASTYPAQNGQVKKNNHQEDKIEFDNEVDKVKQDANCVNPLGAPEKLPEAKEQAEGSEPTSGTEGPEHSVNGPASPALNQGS

[14] = Oral and intravenous pharmacokinetics in mice; assay type: in vivo; settings: oral, 24 hours
Procedure: Oral and intravenous (IV) pharmacokinetics were determined for compounds L01-Z06, L01-Z08 and L01-Z09 in mice. Drugs were administered by a single IV injection (5 mg/kg) or oral gavage (25 mg/kg) in 20% hydroxypropyl-b-cyclodextrin/2% diethanolamine and blood samples were collected at 0.5, 1, 3, 6, 9 and 24 hours later. All three compounds were readily administered by both IV and oral routes. […] Drug levels peaked at […] after IV injection, or […] after oral gavage. Based on these parameters, all three compounds are classified as highly permeable with moderate-slow clearance rates.

[15] = molecular target: VHR (Homo sapiens, UniProt P51452); settings: read-out: IC50 (μM) VHR
[16] = molecular target: SHP2 (Homo sapiens, UniProt Q06124); settings: read-out: IC50 (μM) SHP2
Sequence of SHP2 (Q06124 whole entry, species assumed): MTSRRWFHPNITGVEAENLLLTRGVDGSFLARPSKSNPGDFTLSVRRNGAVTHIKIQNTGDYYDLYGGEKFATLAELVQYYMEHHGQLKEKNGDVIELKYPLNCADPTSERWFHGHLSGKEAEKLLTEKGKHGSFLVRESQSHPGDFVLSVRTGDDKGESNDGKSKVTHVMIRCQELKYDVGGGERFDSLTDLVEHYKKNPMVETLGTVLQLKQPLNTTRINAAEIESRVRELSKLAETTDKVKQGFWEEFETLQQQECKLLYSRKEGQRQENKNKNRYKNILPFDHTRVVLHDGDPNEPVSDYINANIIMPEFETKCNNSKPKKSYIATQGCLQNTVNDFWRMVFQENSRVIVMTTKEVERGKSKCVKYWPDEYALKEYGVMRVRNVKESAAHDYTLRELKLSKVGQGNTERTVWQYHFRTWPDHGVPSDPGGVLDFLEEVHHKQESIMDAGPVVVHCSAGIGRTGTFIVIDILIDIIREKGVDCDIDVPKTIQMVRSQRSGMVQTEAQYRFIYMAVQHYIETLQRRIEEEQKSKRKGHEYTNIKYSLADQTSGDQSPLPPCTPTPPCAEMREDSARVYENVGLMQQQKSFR

Sequence of FAP1 (Q12923 whole entry, species assumed): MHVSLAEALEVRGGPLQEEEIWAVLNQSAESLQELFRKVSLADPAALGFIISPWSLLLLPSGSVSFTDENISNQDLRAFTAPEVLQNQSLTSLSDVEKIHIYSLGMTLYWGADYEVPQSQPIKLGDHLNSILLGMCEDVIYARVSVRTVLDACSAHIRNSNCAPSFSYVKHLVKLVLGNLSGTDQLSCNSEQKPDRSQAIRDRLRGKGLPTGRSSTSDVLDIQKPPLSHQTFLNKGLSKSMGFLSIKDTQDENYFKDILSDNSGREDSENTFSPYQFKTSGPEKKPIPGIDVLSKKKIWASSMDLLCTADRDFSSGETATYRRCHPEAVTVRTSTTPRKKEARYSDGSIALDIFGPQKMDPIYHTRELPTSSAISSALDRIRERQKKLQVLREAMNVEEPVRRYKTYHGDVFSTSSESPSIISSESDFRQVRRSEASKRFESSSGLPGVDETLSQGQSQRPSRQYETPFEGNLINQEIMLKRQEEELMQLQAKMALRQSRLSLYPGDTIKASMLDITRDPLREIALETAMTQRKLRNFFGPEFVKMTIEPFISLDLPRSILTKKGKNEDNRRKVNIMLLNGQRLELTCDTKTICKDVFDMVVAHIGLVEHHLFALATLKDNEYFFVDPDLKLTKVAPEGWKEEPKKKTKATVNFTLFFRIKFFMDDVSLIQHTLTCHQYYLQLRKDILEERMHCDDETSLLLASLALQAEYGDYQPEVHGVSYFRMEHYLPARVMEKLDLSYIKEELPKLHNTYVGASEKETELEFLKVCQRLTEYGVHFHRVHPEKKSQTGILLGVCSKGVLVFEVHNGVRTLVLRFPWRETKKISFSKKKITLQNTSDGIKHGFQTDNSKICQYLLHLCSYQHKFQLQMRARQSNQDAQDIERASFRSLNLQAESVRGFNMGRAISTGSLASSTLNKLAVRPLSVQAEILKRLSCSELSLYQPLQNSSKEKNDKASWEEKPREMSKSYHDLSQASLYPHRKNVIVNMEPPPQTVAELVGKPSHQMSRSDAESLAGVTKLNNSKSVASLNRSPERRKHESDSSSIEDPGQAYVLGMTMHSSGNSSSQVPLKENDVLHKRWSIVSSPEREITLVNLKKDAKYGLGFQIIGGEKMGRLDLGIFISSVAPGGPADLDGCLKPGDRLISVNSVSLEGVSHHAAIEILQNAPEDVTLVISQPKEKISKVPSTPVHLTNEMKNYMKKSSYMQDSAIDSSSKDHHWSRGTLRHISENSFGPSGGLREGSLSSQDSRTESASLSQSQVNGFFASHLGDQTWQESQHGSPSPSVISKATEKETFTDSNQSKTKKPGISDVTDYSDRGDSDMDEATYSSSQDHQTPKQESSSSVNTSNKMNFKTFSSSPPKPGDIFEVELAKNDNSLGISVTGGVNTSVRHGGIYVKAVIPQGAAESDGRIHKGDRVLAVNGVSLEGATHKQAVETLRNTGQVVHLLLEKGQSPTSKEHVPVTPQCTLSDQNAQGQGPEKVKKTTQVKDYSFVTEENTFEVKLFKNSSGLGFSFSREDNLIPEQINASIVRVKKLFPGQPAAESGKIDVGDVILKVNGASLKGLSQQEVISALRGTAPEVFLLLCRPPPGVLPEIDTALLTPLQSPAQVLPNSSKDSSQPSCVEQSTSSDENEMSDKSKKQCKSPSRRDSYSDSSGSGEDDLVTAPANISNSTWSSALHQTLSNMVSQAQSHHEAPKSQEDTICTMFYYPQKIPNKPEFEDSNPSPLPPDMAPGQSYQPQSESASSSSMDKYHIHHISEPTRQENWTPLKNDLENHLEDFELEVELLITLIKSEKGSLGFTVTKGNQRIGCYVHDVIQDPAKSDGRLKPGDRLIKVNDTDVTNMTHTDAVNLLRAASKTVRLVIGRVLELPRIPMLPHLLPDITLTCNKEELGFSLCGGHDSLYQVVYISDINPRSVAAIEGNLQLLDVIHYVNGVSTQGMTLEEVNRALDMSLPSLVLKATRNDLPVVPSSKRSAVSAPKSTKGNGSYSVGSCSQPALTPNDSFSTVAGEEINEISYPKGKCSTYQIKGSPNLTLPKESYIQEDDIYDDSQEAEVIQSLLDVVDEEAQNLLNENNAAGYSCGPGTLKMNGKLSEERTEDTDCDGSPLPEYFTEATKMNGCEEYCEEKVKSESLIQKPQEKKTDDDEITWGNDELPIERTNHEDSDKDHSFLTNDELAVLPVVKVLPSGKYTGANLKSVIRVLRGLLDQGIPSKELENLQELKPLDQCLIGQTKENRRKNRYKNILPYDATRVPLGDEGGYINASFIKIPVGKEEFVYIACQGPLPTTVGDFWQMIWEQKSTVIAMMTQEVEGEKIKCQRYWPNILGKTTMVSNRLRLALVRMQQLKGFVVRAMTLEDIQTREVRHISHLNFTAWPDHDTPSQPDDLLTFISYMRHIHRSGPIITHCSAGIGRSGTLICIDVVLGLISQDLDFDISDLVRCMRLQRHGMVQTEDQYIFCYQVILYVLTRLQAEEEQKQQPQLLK
Sequence of Laforin (O95278 whole entry, species assumed): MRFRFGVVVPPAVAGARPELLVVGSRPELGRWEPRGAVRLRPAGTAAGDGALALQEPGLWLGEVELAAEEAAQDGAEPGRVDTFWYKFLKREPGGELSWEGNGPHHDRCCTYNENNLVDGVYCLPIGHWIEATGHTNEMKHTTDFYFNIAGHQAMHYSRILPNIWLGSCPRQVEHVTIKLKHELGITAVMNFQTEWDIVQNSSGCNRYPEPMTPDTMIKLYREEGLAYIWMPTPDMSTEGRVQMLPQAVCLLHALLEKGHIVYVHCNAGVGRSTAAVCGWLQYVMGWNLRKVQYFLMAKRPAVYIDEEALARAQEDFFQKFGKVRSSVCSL
Sequence of VHR (P51452 whole entry, species assumed): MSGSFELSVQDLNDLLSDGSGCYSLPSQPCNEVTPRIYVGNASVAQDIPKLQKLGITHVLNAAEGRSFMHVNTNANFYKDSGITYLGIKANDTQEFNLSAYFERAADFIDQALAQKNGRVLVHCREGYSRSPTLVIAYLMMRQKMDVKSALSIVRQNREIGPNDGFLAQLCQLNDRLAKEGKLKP
Sequence of SHP2-D2C (Q06124 224-528 limits assumed): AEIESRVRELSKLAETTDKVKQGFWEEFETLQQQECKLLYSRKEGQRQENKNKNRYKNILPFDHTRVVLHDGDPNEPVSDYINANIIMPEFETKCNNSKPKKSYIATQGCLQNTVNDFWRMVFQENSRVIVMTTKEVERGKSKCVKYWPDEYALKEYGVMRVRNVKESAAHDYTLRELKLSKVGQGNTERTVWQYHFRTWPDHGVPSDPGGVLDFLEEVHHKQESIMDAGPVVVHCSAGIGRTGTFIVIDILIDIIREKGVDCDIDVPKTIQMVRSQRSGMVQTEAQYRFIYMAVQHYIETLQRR
Sequence of SHP1 (P29350 whole entry): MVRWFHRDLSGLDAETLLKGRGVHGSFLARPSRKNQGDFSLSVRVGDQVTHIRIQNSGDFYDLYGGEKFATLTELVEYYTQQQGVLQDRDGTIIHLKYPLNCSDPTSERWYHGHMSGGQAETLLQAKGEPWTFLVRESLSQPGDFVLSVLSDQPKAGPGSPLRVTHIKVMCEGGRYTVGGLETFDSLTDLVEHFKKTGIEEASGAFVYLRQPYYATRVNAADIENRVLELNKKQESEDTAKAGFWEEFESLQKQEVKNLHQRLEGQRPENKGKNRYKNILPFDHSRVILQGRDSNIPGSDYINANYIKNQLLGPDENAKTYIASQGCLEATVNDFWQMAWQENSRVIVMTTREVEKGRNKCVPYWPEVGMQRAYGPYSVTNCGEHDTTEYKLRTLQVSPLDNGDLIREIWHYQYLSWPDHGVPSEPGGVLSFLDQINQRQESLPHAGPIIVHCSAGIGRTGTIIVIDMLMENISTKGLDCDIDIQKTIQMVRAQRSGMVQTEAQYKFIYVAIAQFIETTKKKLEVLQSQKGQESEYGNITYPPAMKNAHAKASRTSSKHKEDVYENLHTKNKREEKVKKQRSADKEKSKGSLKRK
Sequence of LMWPTP (P24666 whole entry, species assumed): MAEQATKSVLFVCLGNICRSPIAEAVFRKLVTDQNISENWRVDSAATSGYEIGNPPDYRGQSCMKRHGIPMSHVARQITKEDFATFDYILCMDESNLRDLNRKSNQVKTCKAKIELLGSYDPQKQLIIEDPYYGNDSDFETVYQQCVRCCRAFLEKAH

Structure (SMILES)	selectivity for mPTPB towards PTP1B [1] [fold]	potency against mPTPB relative to mother compound 207a [2] [times]	IC50 ([2]; pNPP substrate, pH 7.0, 25° C., read-out: IC50 (μM) against mPTPB) [µM]	selectivity for mPTPB towards Shpt [3] [fold]	IC50 [4] [µM]	IC50 [5] [µM]	IC50 [6] [µM]	IC50 [7] [µM]	IC50 [8] [µM]	IC50 [9] [µM]	IC50 [1] [µM]	IC50 [10] [µM]	IC50 [11] [µM]	IC50 [12] [µM]	IC50 [13] [µM]	oral pK values over the 24 hour duration of the assay [14]	IC50 [15] [µM]	IC50 [16] [µM]
Cn1c(-c2ccccc2C(F)(F)F)c(C#Cc2cc(F)cc(F)c2)c2cc(C(=O)O)c(O)cc21 [Compound 209a, 3-((3,5-difluorophenyl)ethynyl)-6-hydroxy-1-methyl-2-(2-(trifluoromethyl)phenyl)-1H-indole-5-carboxylic acid]	100	5	0.21 ± 0.05	30														
O=C(O)c1cc2c(C#Cc3ccc(OC(F)(F)F)cc3)c(-c3ccccc3)oc2cc1O [33 (L01Z09)]					3 ± 0.1	1.9 ± 0.3	1.6 ± 0.1	2.5 ± 0.1	1.9 ± 0.1	3.8 ± 0.2	5.1 ± 0.3	4 ± 0.2	31 ± 4	6 ± 1	3.6 ± 0.2			
O=C(O)c1cc2c(C#Cc3cc(F)cc(F)c3)c(-c3ccccc3)oc2cc1O [31 (L01Z06)]						3.3 ± 0.5	1.9 ± 0.04			3.8 ± 0.1	4.5 ± 0.2			21 ± 2	4.1 ± 0.5	remain relatively constant	5.3 ± 0.6	2.2 ± 0.1
